Results taken from PubChem BioAssay (NCI).
Values joined by “and” are separate entries in the source; they are usually repeats but may differ in a detail not shown here. Equal values may be shown once.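 Briefly, cells in 96-well plates were exposed to five compound concentrations for 48 h, and endpoints were estimated by linear interpolation. GI50 = concentration required for 50% inhibition of growth. TGI denotes the concentration required for complete inhibition of growth.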

Columns and labels:
Experiment in all cases: NCI tumour cell line growth inhibition, 48 h
[1] = tested on: CCRF-CEM leukemia
[2] = tested on: OVCAR-8 ovarian
[3] = tested on: NCI-H522 lung
[4] = tested on: BT-549 breast
[5] = tested on: HOP-92 NSCLC
[6] = tested on: SF-539 CNS
[7] = tested on: T-47D breast
[8] = tested on: HL-60(TB) leukemia
[9] = tested on: SF-295 CNS
[10] = tested on: OVCAR-3 ovarian

C=C1C(=O)OC2/C=C(/C)C(OC(C)=O)CC(O)/C(C)=C\C(OC(=O)/C(C)=C\C)C12 (centres undefined)
TGI [1]: > 100 µM | TGI [2]: > 100 µM | TGI [3]: 22.7 µM | TGI [4]: > 100 µM | TGI [5]: > 100 µM | TGI [6]: > 100 µM | TGI [7]: > 100 µM | TGI [8]: 60.7 µM | TGI [9]: > 100 µM | TGI [10]: > 100 µM

CCOc1cc2ncc(C#N)c(Nc3ccc(OCc4ccccn4)c(Cl)c3)c2cc1NC(=O)/C=C/CN(C)C
GI50 [1]: 1.3 µM and 2.44 µM | TGI [1]: 4.95 µM and > 6.11 µM | GI50 [2]: 0.28 µM and 0.339 µM | TGI [2]: 1.65 µM and > 4.46 µM | GI50 [3]: < 0.01 µM and 0.00351 µM | TGI [3]: 0.0818 µM and 0.706 µM | GI50 [4]: 1.97 µM and 0.921 µM | TGI [4]: 22 µM and > 7.85 µM | TGI [5]: 22.8 µM and 4.06 µM | GI50 [6]: 4.24 µM and > 4.3 µM | TGI [6]: 11.5 µM and > 9.31 µM | TGI [7]: 29.7 µM and > 2.61 µM | GI50 [8]: 0.855 µM and 0.822 µM | TGI [8]: 12.9 µM and 2.73 µM | GI50 [9]: 10.9 µM and > 4.59 µM | TGI [9]: 34.7 µM and > 10 µM | GI50 [10]: 1.05 µM and 0.49 µM | TGI [10]: 20.2 µM and > 6.8 µM

CCSCCCN(CCCSCC)CCCSCC
TGI [1]: > 100 µM | TGI [2]: > 100 µM | TGI [3]: > 100 µM | TGI [4]: > 100 µM | TGI [5]: 80.4 µM | TGI [6]: > 100 µM | TGI [7]: > 100 µM | TGI [8]: > 100 µM | TGI [9]: > 100 µM | TGI [10]: > 100 µM

Cc1ccc(S(=O)(=O)Nc2cccc3[nH]c(C(F)(F)F)nc23)cc1
GI50 [1]: 1.16 µM | TGI [1]: > 100 µM | GI50 [2]: 1.22 µM | TGI [2]: > 47.8 µM | GI50 [3]: 0.15 µM | TGI [3]: 0.696 µM | GI50 [4]: 0.62 µM | TGI [4]: 52 µM | GI50 [5]: 0.957 µM | TGI [5]: 9.32 µM | GI50 [6]: 0.427 µM | TGI [6]: 2.06 µM | GI50 [7]: 0.492 µM | TGI [7]: 57 µM | GI50 [8]: 0.39 µM | TGI [8]: 17.2 µM | GI50 [9]: 0.283 µM | TGI [9]: 1.54 µM | GI50 [10]: 0.426 µM | TGI [10]: > 100 µM

C/C=C(\C)C(=O)O[C@H]1C=CC(=O)O[C@@H]1CC[C@H](O)[C@H](C)O
GI50 [1]: 21.3 µM | TGI [1]: 66.2 µM | GI50 [2]: 52.5 µM | TGI [2]: > 100 µM | GI50 [3]: 18 µM | TGI [3]: 43.4 µM | GI50 [4]: 27.3 µM | TGI [4]: 71.2 µM | GI50 [5]: 35 µM | TGI [5]: > 87.5 µM | GI50 [6]: 30.9 µM | TGI [6]: > 100 µM | GI50 [7]: 38.6 µM | TGI [7]: > 87.1 µM | GI50 [8]: 5.71 µM | TGI [8]: 36.3 µM | GI50 [9]: > 100 µM | TGI [9]: > 100 µM | GI50 [10]: 36.5 µM | TGI [10]: > 100 µM

COc1cccc(-n2ncc3c(N/N=C/c4ccncc4)ncnc32)c1
GI50 [1]: > 13.4 µM | TGI [1]: > 25 µM | GI50 [2]: 4.88 µM | TGI [2]: > 25 µM | GI50 [3]: > 14.5 µM | TGI [3]: > 25 µM | GI50 [4]: > 25 µM | TGI [4]: > 25 µM | GI50 [5]: > 25 µM | TGI [5]: > 25 µM | GI50 [6]: 4.27 µM | TGI [6]: > 25 µM | GI50 [7]: > 25 µM | TGI [7]: > 25 µM | GI50 [8]: 8.66 µM | TGI [8]: > 25 µM | GI50 [9]: 1.35 µM | TGI [9]: > 25 µM | GI50 [10]: 1.9 µM | TGI [10]: > 25 µM

COc1ccc(OC)c(-c2c(C#N)c(N)nc(N3CCOCC3)c2C#N)c1
GI50 [1]: > 100 µM | TGI [1]: > 100 µM | GI50 [2]: 79.1 µM | TGI [2]: > 100 µM | GI50 [3]: 46.2 µM | TGI [3]: > 100 µM | GI50 [4]: > 100 µM | TGI [4]: > 100 µM | GI50 [5]: 82.5 µM | TGI [5]: > 100 µM | GI50 [6]: > 100 µM | TGI [6]: > 100 µM | GI50 [7]: 45.1 µM | TGI [7]: > 100 µM | GI50 [8]: > 100 µM | TGI [8]: > 100 µM | GI50 [9]: > 100 µM | TGI [9]: > 100 µM | GI50 [10]: 39.3 µM | TGI [10]: > 100 µM

CC[C@H](CO)Nc1nc(NCc2ccccc2)n2ncc(C(C)C)c2n1
GI50 [1]: 0.648 µM | TGI [1]: 9.26 µM | GI50 [2]: 2.15 µM | TGI [2]: 54.8 µM | GI50 [3]: 1.46 µM | TGI [3]: 8.98 µM | GI50 [4]: 1.56 µM | TGI [4]: 5.29 µM | GI50 [5]: 1.67 µM | TGI [5]: 7.1 µM | GI50 [6]: 1.22 µM | TGI [6]: 3.62 µM | GI50 [7]: 2.48 µM | TGI [7]: 13.3 µM | GI50 [8]: 0.409 µM | TGI [8]: 2.68 µM | GI50 [9]: 0.812 µM | TGI [9]: 4.74 µM | GI50 [10]: 1.15 µM | TGI [10]: 4.6 µM

CS[C@]12C(=O)C[C@@]3(C)[C@@H](CC[C@]3(O)C(=O)CO)[C@@H]1CCC1=CC(=O)CC[C@@]12C
TGI [1]: > 100 µM | TGI [2]: > 100 µM | TGI [3]: > 100 µM | TGI [4]: > 100 µM | TGI [5]: > 100 µM | TGI [6]: > 100 µM | TGI [7]: > 100 µM | TGI [8]: > 100 µM | TGI [9]: > 100 µM | TGI [10]: > 100 µM

Nc1nc(Nc2ccc(C3CCC(N4CCOCC4)CC3)cc2)nn1-c1ccccn1 (centres undefined)
GI50 [1]: 3.25 µM | TGI [1]: 55.9 µM | GI50 [2]: 11.6 µM | TGI [2]: > 100 µM | GI50 [3]: 8.51 µM | TGI [3]: 32.7 µM | GI50 [4]: 2.52 µM | TGI [4]: 6.54 µM | GI50 [5]: 1.59 µM | TGI [5]: > 27.5 µM | GI50 [6]: 1.42 µM | TGI [6]: 4.99 µM | GI50 [7]: > 31.5 µM | TGI [7]: > 100 µM | GI50 [8]: 2.55 µM | TGI [8]: 9.96 µM | GI50 [9]: 2.92 µM | TGI [9]: 10.9 µM | GI50 [10]: 9.86 µM | TGI [10]: 44.6 µM

COc1c(Cl)cc(NC(=S)C#N)cc1Cl
TGI [1]: > 100 µM | TGI [2]: > 69.3 µM | TGI [3]: 52.8 µM | TGI [4]: 39.5 µM | TGI [5]: 48.8 µM | TGI [6]: 59 µM | TGI [7]: 90.6 µM | TGI [8]: > 100 µM | TGI [9]: > 79.9 µM | TGI [10]: > 62.8 µM

CC1=C(CO)C(=O)O[C@@H]([C@@H](C)[C@H]2CC[C@H]3[C@@H]4C[C@@H](O)[C@@]5(O)CC=CC(=O)[C@]5(C)[C@H]4CC[C@]23C)C1
TGI [1]: > 100 µM | TGI [2]: > 100 µM | TGI [3]: 30.7 µM | TGI [4]: 93.8 µM | TGI [5]: > 100 µM | TGI [6]: > 100 µM | TGI [7]: > 100 µM | TGI [8]: > 100 µM | TGI [9]: > 100 µM | TGI [10]: > 100 µM

O=C(Nc1ccc(Cl)cc1)Nc1ccc(Nc2nncc3ccccc23)cc1
GI50 [1]: 2.57 µM | TGI [1]: 17 µM | GI50 [2]: 3.12 µM | TGI [2]: 12.4 µM | GI50 [3]: 1.32 µM | TGI [3]: 8.81 µM | GI50 [4]: 2.15 µM | TGI [4]: 9.28 µM | GI50 [5]: 2.55 µM | TGI [5]: 7.26 µM | GI50 [6]: 2.88 µM | TGI [6]: 11.5 µM | GI50 [7]: 1.03 µM | TGI [7]: 5.35 µM | GI50 [8]: 2.42 µM | TGI [8]: 7 µM | GI50 [9]: 2.84 µM | TGI [9]: 11 µM | GI50 [10]: 2.57 µM | TGI [10]: 10.3 µM

O=C1c2c(O)cccc2C(C2OC(CO)C(O)C(O)C2O)c2cc(CO)cc(O)c21 (centres undefined)
TGI [1]: > 100 µM | TGI [2]: > 100 µM | TGI [3]: > 100 µM | TGI [4]: > 100 µM | TGI [5]: > 100 µM | TGI [6]: > 100 µM | TGI [7]: > 100 µM | TGI [8]: > 100 µM | TGI [9]: > 100 µM | GI50 [10]: 43.9 µM and > 100 µM | TGI [10]: > 100 µM
